Test results: ChEMBL document CHEMBL1201861, “Genomics of Drug Sensitity in Cancer screening data, Wellcome Trust Sanger Institute”

Assays:
Assay in all cases: cells
KARPAS-299 = assay type: functional, cell-based, Homo sapiens
Description: SANGER: Inhibition of human KARPAS-299 cell growth in a cell viability assay.

SW 962 = assay type: functional, cell-based, Homo sapiens;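 note: growth inhibition of human SW962 cells, read out by a cell viability assay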
Description: SANGER: Inhibition of human SW962 cell growth in a cell viability assay.

CP66-MEL = assay type: functional, cell-based, Homo sapiens;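 note: growth inhibition of CP66-MEL cells determined in a cell viability assay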
Description: SANGER: Inhibition of human CP66-MEL cell growth in a cell viability assay.

SW 954 = assay type: functional, cell-based, Homo sapiens;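 note: growth inhibition of SW954 human cancer cells, read out as cell viability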
Description: SANGER: Inhibition of human SW954 cell growth in a cell viability assay.

VA-ES-BJ = assay type: functional, cell-based, Homo sapiens;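 note: growth inhibition of the VA-ES-BJ cell line, read out by a cell viability assay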
Description: SANGER: Inhibition of human VA-ES-BJ cell growth in a cell viability assay.

DU-4475 = assay type: functional, cell-based, Homo sapiens
Description: SANGER: Inhibition of human DU-4475 cell growth in a cell viability assay.

CAS-1 = assay type: functional, cell-based, Homo sapiens;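 note: growth inhibition of CAS-1 cells, measured with a cell viability assay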
Description: SANGER: Inhibition of human CAS-1 cell growth in a cell viability assay.

SH-4 = assay type: functional, cell-based, Homo sapiens;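 note: growth inhibition of SH-4 cells, read out with a cell viability assay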
Description: SANGER: Inhibition of human SH-4 cell growth in a cell viability assay.

BT-474 = assay type: functional, cell-based, Homo sapiens
Description: SANGER: Inhibition of human BT-474 cell growth in a cell viability assay.

ALL-PO = assay type: functional, cell-based, Homo sapiens;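 note: growth inhibition of ALL-PO cells, read out by a cell viability assay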
Description: SANGER: Inhibition of human ALL-PO cell growth in a cell viability assay.

COLO-684 = assay type: functional, cell-based, Homo sapiens
Description: SANGER: Inhibition of human COLO-684 cell growth in a cell viability assay.

NCI-H1395 = assay type: functional, cell-based, Homo sapiens;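 note: cell viability assay read-out quantifying reduced proliferation of human NCI-H1395 cells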
Description: SANGER: Inhibition of human NCI-H1395 cell growth in a cell viability assay.

SK-N-DZ = assay type: functional, cell-based, Homo sapiens;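 note: growth inhibition of the cancer cell line, read out through a viability assay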
Description: SANGER: Inhibition of human SK-N-DZ cell growth in a cell viability assay.

UACC-257 = assay type: functional, cell-based, Homo sapiens
Description: SANGER: Inhibition of human UACC-257 cell growth in a cell viability assay.

MV4-11 = assay type: functional, cell-based, Homo sapiens, MV-4-11;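 note: cell viability readout measuring growth inhibition of human MV-4-11 cells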
Description: SANGER: Inhibition of human MV-4-11 cell growth in a cell viability assay.

ACN = assay type: functional, cell-based, Homo sapiens;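 note: growth inhibition of the human ACN cell line, read out via cell viability testing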
Description: SANGER: Inhibition of human ACN cell growth in a cell viability assay.

NOS-1 = assay type: functional, cell-based, Homo sapiens;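 note: growth inhibition of the human NOS-1 cell line, read out with a cell viability assay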
Description: SANGER: Inhibition of human NOS-1 cell growth in a cell viability assay.

NCI-H1304 = assay type: functional, cell-based, Homo sapiens;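 note: growth inhibition of the cancer cell line, measured in a cell viability assay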
Description: SANGER: Inhibition of human NCI-H1304 cell growth in a cell viability assay.

LB2241-RCC = assay type: functional, cell-based, Homo sapiens;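 note: cell viability assay measuring how strongly the cultured human renal carcinoma line is prevented from growing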
Description: SANGER: Inhibition of human LB2241-RCC cell growth in a cell viability assay.

HuTu80 = assay type: functional, cell-based, Homo sapiens, HUTU-80;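 note: growth inhibition of HuTu80 human cells, determined with a cell viability readout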
Description: SANGER: Inhibition of human HUTU-80 cell growth in a cell viability assay.

NCI-H1155 = assay type: functional, cell-based, Homo sapiens;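 note: cell growth inhibition measured by a viability assay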
Description: SANGER: Inhibition of human NCI-H1155 cell growth in a cell viability assay.

TE-8 = assay type: functional, cell-based, Homo sapiens;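 note: growth inhibition of TE-8 cells, measured with a cell viability readout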
Description: SANGER: Inhibition of human TE-8 cell growth in a cell viability assay.

NKM-1 = assay type: functional, cell-based, Homo sapiens;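 note: growth inhibition of NKM-1 cells, read out with a cell viability assay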
Description: SANGER: Inhibition of human NKM-1 cell growth in a cell viability assay.

TGBC24TKB = assay type: functional, cell-based, Homo sapiens;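 note: growth inhibition of human TGBC24TKB cells, read out with a cell viability assay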
Description: SANGER: Inhibition of human TGBC24TKB cell growth in a cell viability assay.

MHH-PREB-1 = assay type: functional, cell-based, Homo sapiens;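 note: cell viability assay measuring inhibition of proliferation of human MHH-PREB-1 cells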
Description: SANGER: Inhibition of human MHH-PREB-1 cell growth in a cell viability assay.

MZ7-mel = assay type: functional, cell-based, Homo sapiens;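 note: growth inhibition of human MZ7-mel cells, measured by a cell viability assay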
Description: SANGER: Inhibition of human MZ7-mel cell growth in a cell viability assay.

NB12 = assay type: functional, cell-based, Homo sapiens;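 note: growth inhibition of human NB12 cells, read out by a cell viability assay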
Description: SANGER: Inhibition of human NB12 cell growth in a cell viability assay.

LB831-BLC = assay type: functional, cell-based, Homo sapiens;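 note: growth inhibition of LB831-BLC cells, read out with a cell viability assay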
Description: SANGER: Inhibition of human LB831-BLC cell growth in a cell viability assay.

GI-ME-N = assay type: functional, cell-based, Homo sapiens;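 note: growth inhibition of human GI-ME-N cells, read out with a cell viability assay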
Description: SANGER: Inhibition of human GI-ME-N cell growth in a cell viability assay.

NTERA-2-cl-D1 = assay type: functional, cell-based, Homo sapiens;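 note: inhibition of cell growth, measured with a cell viability assay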
Description: SANGER: Inhibition of human NTERA-S-cl-D1 cell growth in a cell viability assay.

TE-1 = assay type: functional, cell-based, Homo sapiens;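 note: growth inhibition of the human TE-1 cell line, read out with a cell viability assay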
Description: SANGER: Inhibition of human TE-1 cell growth in a cell viability assay.

NMC-G1 = assay type: functional, cell-based, Homo sapiens;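 note: growth inhibition of the NMC-G1 cell line, measured with a cell viability read-out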
Description: SANGER: Inhibition of human NMC-G1 cell growth in a cell viability assay.

KS-1 = assay type: functional, cell-based, Homo sapiens;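 note: growth inhibition of KS-1 cells, read out with a cell viability assay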
Description: SANGER: Inhibition of human KS-1 cell growth in a cell viability assay.

HDLM-2 = assay type: functional, cell-based, Homo sapiens;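 note: cell viability assay measuring suppression of HDLM-2 proliferation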
Description: SANGER: Inhibition of human HDLM-2 cell growth in a cell viability assay.

D-263MG = assay type: functional, cell-based, Homo sapiens
Description: SANGER: Inhibition of human D-263MG cell growth in a cell viability assay.

SK-NEP-1 = assay type: functional, cell-based, Homo sapiens;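 note: growth inhibition of human SK-NEP-1 cells, read out by a cell viability assay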
Description: SANGER: Inhibition of human SK-NEP-1 cell growth in a cell viability assay.

EM-2 = assay type: functional, cell-based, Homo sapiens;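 note: growth inhibition of EM-2 cells, read out with a cell viability assay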
Description: SANGER: Inhibition of human EM-2 cell growth in a cell viability assay.

SNU-5 = assay type: functional, cell-based, Homo sapiens;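 note: cell viability readout used to measure growth inhibition in human NCI-SNU-5 cells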
Description: SANGER: Inhibition of human NCI-SNU-5 cell growth in a cell viability assay.

RS4-11 = assay type: functional, cell-based, Homo sapiens;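 note: growth inhibition of RS4-11 cells, read out by a cell viability assay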
Description: SANGER: Inhibition of human RS4-11 cell growth in a cell viability assay.

TE-6 = assay type: functional, cell-based, Homo sapiens;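 note: growth inhibition of TE-6 cells, read out with a cell viability assay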
Description: SANGER: Inhibition of human TE-6 cell growth in a cell viability assay.

JVM-2 = assay type: functional, cell-based, Homo sapiens;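 note: growth inhibition of JVM-2 cells determined by a cell viability assay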
Description: SANGER: Inhibition of human JVM-2 cell growth in a cell viability assay.

no-11 = assay type: functional, cell-based, Homo sapiens;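 note: growth inhibition of human NO-11 cells, read out with a cell viability assay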
Description: SANGER: Inhibition of human no-11 cell growth in a cell viability assay.

OCI-AML2 = assay type: functional, cell-based, Homo sapiens;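 note: growth inhibition of OCI-AML2 cells, read out with a cell viability assay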
Description: SANGER: Inhibition of human OCI-AML2 cell growth in a cell viability assay.

697 = assay type: functional, cell-based, Homo sapiens
Description: SANGER: Inhibition of human 697 cell growth in a cell viability assay.

MSTO-211H = assay type: functional, cell-based, Homo sapiens
Description: SANGER: Inhibition of human MSTO-211H cell growth in a cell viability assay.

MEG-01 = assay type: functional, cell-based, Homo sapiens;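 note: growth inhibition of MEG-01 cells, read out by a cell viability assay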
Description: SANGER: Inhibition of human MEG-01 cell growth in a cell viability assay.

MOLT-4 = assay type: functional, cell-based, Homo sapiens;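 note: growth inhibition of MOLT-4 cells, determined with a cell viability readout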
Description: SANGER: Inhibition of human MOLT-4 cell growth in a cell viability assay.

With CISPLATIN as the compound, how does the IC50 (KARPAS-299; karpas-299) read?
The IC50 was 172 µM.

And the IC50 (SW 962; sw 962)?
The IC50 was 64.6 µM.

And the IC50 (CP66-MEL; cp66-mel)?
Its IC50 is 32 µM.

And the IC50 (SW 954; sw 954)?
The IC50 was 11.1 µM.

What about the IC50 (VA-ES-BJ; va-es-bj) of the same compound?
The IC50 was 2.45 µM.

And the IC50 (DU-4475; du-4475)?
Its IC50 is 111 µM.

What about the IC50 (CAS-1; cas-1) of the same compound?
Its IC50 is 116 µM.

What about the IC50 (SH-4; sh-4) of the same compound?
Its IC50 is 68.7 µM.

And the IC50 (BT-474; bt-474)?
Its IC50 is 1100 µM.

What about the IC50 (ALL-PO; all-po) of the same compound?
Its IC50 is 31.1 µM.

What about the IC50 (COLO-684; colo-684) of the same compound?
Its IC50 is 29.1 µM.

And the IC50 (NCI-H1395; nci-h1395)?
Its IC50 is 43.4 µM.

And the IC50 (SK-N-DZ; sk-n-dz)?
Its IC50 is 26.8 µM.

What about the IC50 (UACC-257; uacc-257) of the same compound?
Its IC50 is 108 µM.

What about the IC50 (MV4-11; mv-4-11) of the same compound?
Its IC50 is 3.46 µM.

And the IC50 (ACN; acn)?
The IC50 was 34.3 µM.

What about the IC50 (NOS-1; nos-1) of the same compound?
The IC50 was 147 µM.

And the IC50 (NCI-H1304; nci-h1304)?
The IC50 was 9.85 µM.

And the IC50 (LB2241-RCC; lb2241-rcc)?
Its IC50 is 11.3 µM.

What about the IC50 (HuTu80; hutu-80) of the same compound?
Its IC50 is 467 µM.

And the IC50 (NCI-H1155; nci-h1155)?
The IC50 was 22.7 µM.

And the IC50 (TE-8; te-8)?
Its IC50 is 16.5 µM.

And the IC50 (NKM-1; nkm-1)?
The IC50 was 6.04 µM.

What about the IC50 (TGBC24TKB; tgbc24tkb) of the same compound?
Its IC50 is 39.8 µM.

And the IC50 (MHH-PREB-1; mhh-preb-1)?
Its IC50 is 23.8 µM.

And the IC50 (MZ7-mel; mz7-mel)?
The IC50 was 6.68 µM.

What about the IC50 (NB12; nb12) of the same compound?
The IC50 was 166 µM.

And the IC50 (LB831-BLC; lb831-blc)?
Its IC50 is 225 µM.

What about the IC50 (GI-ME-N; gi-me-n) of the same compound?
The IC50 was 11 µM.

What about the IC50 (NTERA-2-cl-D1; ntera-2-cl-d1) of the same compound?
The IC50 was 0.848 µM.

And the IC50 (TE-1; te-1)?
Its IC50 is 38.5 µM.

What about the IC50 (NMC-G1; nmc-g1) of the same compound?
The IC50 was 14.5 µM.

And the IC50 (KS-1; ks-1)?
Its IC50 is 28.3 µM.

And the IC50 (HDLM-2; hdlm-2)?
Its IC50 is 144 µM.

And the IC50 (D-263MG; d-263mg)?
Its IC50 is 6.66 µM.

What about the IC50 (SK-NEP-1; sk-nep-1) of the same compound?
The IC50 was 7.18 µM.

And the IC50 (EM-2; em-2)?
Its IC50 is 71.2 µM.

And the IC50 (SNU-5; snu-5)?
The IC50 was 141 µM.

And the IC50 (RS4-11; rs4-11)?
The IC50 was 5.57 µM.

And the IC50 (TE-6; te-6)?
Its IC50 is 57.3 µM.

And the IC50 (JVM-2; jvm-2)?
The IC50 was 568 µM.

And the IC50 (no-11)?
The IC50 was 15.6 µM.

What about the IC50 (OCI-AML2; oci-aml2) of the same compound?
Its IC50 is 15.3 µM.

And the IC50 697?
The IC50 was 1.89 µM.

And the IC50 (MSTO-211H; msto-211h)?
The IC50 was 57.1 µM.

What about the IC50 (MEG-01; meg-01) of the same compound?
Its IC50 is 21.7 µM.

And the IC50 (MOLT-4; molt-4)?
The IC50 was 88.8 µM.

For `Cc1cn(-c2cc(NC(=O)c3ccc(C)c(Nc4nccc(-c5cccnc5)n4)c3)cc(C(F)(F)F)c2)cn1` [NILOTINIB], which IC50 (KARPAS-299; Homo sapiens, KARPAS-299) is on record?
The IC50 was > 2 µM.

What about the IC50 (SW 962; Homo sapiens, SW 962) of the same compound?
Its IC50 is > 2 µM.

And the IC50 (CP66-MEL; Homo sapiens, CP66-MEL)?
Its IC50 is > 2 µM.

And the IC50 (SW 954; Homo sapiens, SW 954)?
Its IC50 is > 2 µM.

What about the IC50 (VA-ES-BJ; Homo sapiens, VA-ES-BJ) of the same compound?
The IC50 was > 2 µM.

And the IC50 (DU-4475; Homo sapiens, DU-4475)?
The IC50 was > 2 µM.

And the IC50 (CAS-1; Homo sapiens, CAS-1)?
The IC50 was > 2 µM.

What about the IC50 (SH-4; Homo sapiens, SH-4) of the same compound?
Its IC50 is > 2 µM.

What about the IC50 (BT-474; Homo sapiens, BT-474) of the same compound?
Its IC50 is > 2 µM.

What about the IC50 (ALL-PO; Homo sapiens, ALL-PO) of the same compound?
The IC50 was > 2 µM.

What about the IC50 (COLO-684; Homo sapiens, COLO-684) of the same compound?
The IC50 was > 2 µM.

And the IC50 (NCI-H1395; Homo sapiens, NCI-H1395)?
The IC50 was > 2 µM.

And the IC50 (SK-N-DZ; Homo sapiens, SK-N-DZ)?
Its IC50 is > 2 µM.

And the IC50 (UACC-257; Homo sapiens, UACC-257)?
Its IC50 is > 2 µM.

What about the IC50 (MV4-11; Homo sapiens, MV4-11) of the same compound?
The IC50 was > 2 µM.

What about the IC50 (ACN; Homo sapiens, ACN) of the same compound?
The IC50 was 1.55 µM.

What about the IC50 (NOS-1; Homo sapiens, NOS-1) of the same compound?
Its IC50 is > 2 µM.

What about the IC50 (NCI-H1304; Homo sapiens, NCI-H1304) of the same compound?
The IC50 was > 2 µM.

What about the IC50 (LB2241-RCC; Homo sapiens, LB2241-RCC) of the same compound?
Its IC50 is 1.02 µM.

What about the IC50 (HuTu80; Homo sapiens, HuTu80) of the same compound?
Its IC50 is > 2 µM.

And the IC50 (NCI-H1155; Homo sapiens, NCI-H1155)?
Its IC50 is > 2 µM.

What about the IC50 (TE-8; Homo sapiens, TE-8) of the same compound?
The IC50 was > 2 µM.

And the IC50 (NKM-1; Homo sapiens, NKM-1)?
Its IC50 is 0.901 µM.

And the IC50 (TGBC24TKB; Homo sapiens, TGBC24TKB)?
The IC50 was > 2 µM.

What about the IC50 (MHH-PREB-1; Homo sapiens, MHH-PREB-1) of the same compound?
Its IC50 is > 2 µM.

What about the IC50 (MZ7-mel; Homo sapiens, MZ7-mel) of the same compound?
The IC50 was > 2 µM.

What about the IC50 (NB12; Homo sapiens, NB12) of the same compound?
The IC50 was > 2 µM.

What about the IC50 (LB831-BLC; Homo sapiens, LB831-BLC) of the same compound?
The IC50 was > 2 µM.

And the IC50 (GI-ME-N; Homo sapiens, GI-ME-N)?
The IC50 was > 2 µM.

And the IC50 (NTERA-2-cl-D1; Homo sapiens, NTERA-2-cl-D1)?
Its IC50 is > 2 µM.

And the IC50 (TE-1; Homo sapiens, TE-1)?
Its IC50 is > 2 µM.

What about the IC50 (NMC-G1; Homo sapiens, NMC-G1) of the same compound?
Its IC50 is > 2 µM.

What about the IC50 (KS-1; Homo sapiens, KS-1) of the same compound?
Its IC50 is > 2 µM.

What about the IC50 (HDLM-2; Homo sapiens, HDLM-2) of the same compound?
Its IC50 is > 2 µM.

And the IC50 (D-263MG; Homo sapiens, D-263MG)?
The IC50 was > 2 µM.

What about the IC50 (SK-NEP-1; Homo sapiens, SK-NEP-1) of the same compound?
Its IC50 is > 2 µM.

What about the IC50 (EM-2; Homo sapiens, EM-2) of the same compound?
The IC50 was 0.0041 µM.

What about the IC50 (SNU-5; Homo sapiens, SNU-5) of the same compound?
The IC50 was > 2 µM.

What about the IC50 (RS4-11; Homo sapiens, RS4-11) of the same compound?
The IC50 was > 2 µM.

What about the IC50 (TE-6; Homo sapiens, TE-6) of the same compound?
The IC50 was > 2 µM.

And the IC50 (JVM-2; Homo sapiens, JVM-2)?
Its IC50 is > 2 µM.

What about the IC50 (no-11; Homo sapiens) of the same compound?
Its IC50 is > 2 µM.

And the IC50 (OCI-AML2; Homo sapiens, OCI-AML2)?
Its IC50 is > 2 µM.

And the IC50 (697; Homo sapiens)?
Its IC50 is > 2 µM.

What about the IC50 (MSTO-211H; Homo sapiens, MSTO-211H) of the same compound?
The IC50 was > 2 µM.

What about the IC50 (MEG-01; Homo sapiens, MEG-01) of the same compound?
Its IC50 is 0.00828 µM.

And the IC50 (MOLT-4; Homo sapiens, MOLT-4)?
Its IC50 is > 2 µM.
